For series [1] the following is noted: cited from earlier work; for peak plasma concentration: mean±standard deviation.
A short description of series [2]: Example 1: randomized double-blind study of 1-, 4- or 10-day titration to 200 mg/day in patients with chronic joint pain. The following applies: 10-day titration group (50 mg increments every 3 days to 200 mg/day) compared with 1-day and 4-day titration groups, 14 days. Type of series: in vivo. On the procedure: A total of 465 patients with chronic joint pain were enrolled in the study and randomized into one of four treatment groups for 14 days. Patients continued on their prestudy dose of NSAIDs while concurrently receiving tramadol or placebo. Tramadol groups were titrated at three different rates to achieve the study target dose of 200 mg/day. […] Discontinuation due to any adverse event was similarly analyzed. If the trend was statistically significant, pairwise comparisons were performed to determine the statistical significance between titration rates.
The study protocol was approved by an Institutional Review Board at each study site and informed consent regarding the risks and benefits of participation was obtained for all patients.
Patients with chronic joint pain who had been receiving a maintenance dose (±25%) of NSAID for at least 30 days, and who required additional pain relief, were randomized into three titration groups and a placebo group using a 2:2:2:1 randomization schedule. […]

The target of series [3] is μ opioid receptors (Homo sapiens, UniProt P35372). The following applies: cited from earlier work.
The conditions of series [4]: cited from earlier work.
Series [5] is described as follows: Example 2: open-label run-in and double-blind study of 10-, 16- or 13-day titration in subjects with chronic pain.
The mark [6] stands for this setting: single 100 mg oral dose, healthy subjects.
Setting [7] is: double-blind phase, 10-day titration group.
[8] abbreviates: double-blind phase, 13-day titration group.
Setting [9] is: double-blind phase, 16-day titration group.

Counter-ions that a name gives are not always drawn.

Chain of μ opioid receptors (P35372 whole entry): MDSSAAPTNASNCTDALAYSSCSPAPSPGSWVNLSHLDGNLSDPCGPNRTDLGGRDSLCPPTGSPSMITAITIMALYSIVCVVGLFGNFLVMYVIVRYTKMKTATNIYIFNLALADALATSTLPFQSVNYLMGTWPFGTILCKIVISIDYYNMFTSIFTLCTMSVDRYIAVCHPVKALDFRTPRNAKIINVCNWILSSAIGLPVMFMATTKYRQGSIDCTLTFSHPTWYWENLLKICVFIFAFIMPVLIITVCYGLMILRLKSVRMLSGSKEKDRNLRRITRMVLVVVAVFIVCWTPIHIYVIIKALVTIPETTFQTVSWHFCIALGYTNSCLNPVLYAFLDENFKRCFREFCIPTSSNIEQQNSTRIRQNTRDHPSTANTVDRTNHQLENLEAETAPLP

Regarding `CN(C)C[C@H]1CCCC[C@]1(O)c1cccc(O)c1` [mono-O-desmethyl tramadol, mono-O-desmethyltramadol], in series [1] (setting [6]), the peak plasma concentration is 55 ± 20 ng/mL, the “terminal plasma elimination half-life” value is 7.4 ± 1.4 h and the “time of peak plasma concentration after administration” value was “approximately three”.

As to `COc1cccc(C2(O)CCCCC2CN(C)C)c1` (centres unmarked) [tramadol hydrochloride, 2-[(dimethylamino)methyl]-1-(3-methoxyphenyl)cyclohexanol], the “discontinuations due to dizziness and/or vertigo, nausea and/or vomiting, and any other adverse event” value in series [2] is listed as “fewest discontinuations”. Further, the “binding affinity to μ receptors” value in series [3] is “low-affinity binding”. Further, the “absorption after oral administration” value in series [1] (oral administration) was “rapidly and almost completely absorbed”. For the same compound, the peak plasma concentration in series [1] (setting [6]) is 308 ± 78 ng/mL. The “time of peak plasma concentration after administration” value in series [1] (setting [6]) is “two”. In addition, the “bound to plasma proteins” value in series [4] is reported as 20.2%. The “median time to discontinuation due to any adverse event” value in series [5] (setting [7]) was determined as 9.0 days; in series [5] (setting [8]), 6.5 days; in series [5] (setting [9]), 6.0 days. The “median time to discontinuation due to nausea and/or vomiting” value stood at 9.0 days in series [5] (setting [7]), 5.5 days in series [5] (setting [8]) and 4.0 days in series [5] (setting [9]). Moreover, the “mean reduction from baseline PVA scores” value came to 1.4 cm in series [5] (double-blind phase, 10-day titration group (200 mg/day)); 1.6 cm in series [5] (double-blind phase, 13-day titration group (150 mg/day)); 1.5 cm in series [5] (double-blind phase, 16-day titration group (200 mg/day)); 2.1 cm in series [5] (open-label/run-in phase, titrated to 200 mg/day over four days). For the same compound, the “advantage in cumulative proportion of subjects who discontinued due to nausea and/or vomiting” value in series [5] (titration to 200 mg/day over 10 days versus over 16 days) is 20 percentage.

These data come from patent US6605644B2, “Analgesic regimen” (Ortho-McNeil Pharmaceutical, Inc., priority 1999, dated 2003).
